Data: patent publication US20220348571A1, “DIHYDROPYRIMIDINE DERIVATIVES AND USES THEREOF IN THE TREATMENT OF HBV INFECTION OR OF HBV-INDUCED DISEASES” (Janssen Sciences Ireland Unlimited Company, priority 2018, published 2022)
Counter-ions that a name gives are not always drawn. Like-named read-outs stand apart in the source and are kept apart here.

Tests used:
Type in all cases: cell-based
[1] = tested on: HBV; test: Anti-viral assay in HepG2.2.15 cells: HBV inhibitory activity (HBV DNA in culture medium by q-PCR); settings: Hepatitis B virus, HepG2.2.15, 144 h
Text: (§1) Example 2: Anti-Viral Assay in HepG2.2.15 Cells
(§2) 1.1. Cell line • HepG2.2.15 (the HepG2.2.15 cell line can be produced by transfection of the HepG2 cell line as described in Sells, Chen, and Acs 1987 (Proc. Natl. Acad. Sci. USA 84:1005-1009), and the HepG2 cell line is available from ATCC® under number HB-8065™).
(§3) Seed the cell HepG2.2.15 cells into 96-well plate in 2% FBS culture medium at the density of 40,000 cells/well and 5,000 cells/well for HBV inhibitory activity and cytotoxicity determination, respectively. After seeding, incubate the cell plates at 37° C., 5% CO2 overnight. The next day, medium containing compounds is added to the cell to treat the cells for 6 days with medium refreshed once in the middle of the treatment. 8 dose points with 3 folds dilution of each compound were adopted and the highest concentration of the compounds is 10 uM and 100 uM for HBV inhibitory activity and cytotoxicity determination, respectively.
The HBV DAN change in the cell culture medium induced by the compounds is measured by q-PCR method. Briefly, the HBV DNA in the culture medium is extracted using QIAamp 96 DNA Blood Kit according to the manual and then quantified by q-PCR using the primers and probe in the table below.
(§4) 2.2. DATA Analysis EC50 and CC50 values are calculated by the GRAPHPAD PRISM software.

[2] = Cytotoxicity determination in HepG2.2.15 cells (CCK-8); settings: human, 6 days treatment, CCK-8, highest concentration 100 uM
Text: as §1, §2, §3
(§5) After 6 days of compounds treatment, add 20 μl CCK-8 reagents to each well of cytotoxicity assay plates, incubate the plate at 37° C., 5% CO2 for 2.5 h and measure the absorbance at 450 nm wavelength, at the same time read the absorbance at 630 nm wavelength as reference.
as §4

[3] = tested on: HepG2.2.15 cells; test: as above; settings: 6 days treatment, CCK-8, highest concentration 100 uM
Text: as §1, §2, §3, §5, §4

[4] = HepG2.2.15 cells, 6 days treatment, HBV DNA in culture medium by q-PCR, highest concentration 10 uM, read-out: EC50

| SMILES | EC50 [1, 4] | CC50 at 6 days [2] | EC50 [1] | CC50 [3] |
| --- | --- | --- | --- | --- |
| CCOC(=O)C1=C([C@H]2CC[C@@H](n3nccc3C(=O)O)CC2)NC(c2nccs2)=NC1c1ccc(F)c(F)c1Cl (single isomer, unassigned) [Compound I-39-B, (cis)-1-(4-(6-(2-Chloro-3,4-difluorophenyl)-5-(ethoxycarbonyl)-2-(thiazol-2-yl)-3,6-dihydropyrimidin-4-yl)cyclohexyl)-1H-pyrazole-5-carboxylic acid] | 82 nM |  |  |  |
| COC(=O)C1=C(C2CCN(c3ncc(C)c(C(=O)O)n3)CC2)NC(c2nccs2)=NC1c1cccc(F)c1C (single isomer, unassigned) [II-5-B] | 49 nM | 25.8 µM |  |  |
| CCOC(=O)C1=C(C2CCN(c3nc(C)c(C(=O)O)o3)CC2)NC(c2nccs2)=NC1c1ccc(F)c(F)c1Cl (single isomer, unassigned) [II-64-B, Lithium 2-(4-(6-(2-chloro-3,4-difluorophenyl)-5-(ethoxycarbonyl)-2-(thiazol-2-yl)-3,6-dihydropyrimidin-4-yl)piperidin-1-yl)-4-methyloxazole-5-carboxylate] |  |  | 75 nM | 6.84 µM |
| CCOC(=O)C1=C(C2CCN(c3ncc(C(=O)O)c(OC)n3)CC2)NC(c2nccs2)=NC1c1ccc(F)c(F)c1Cl (single isomer, unassigned) [II-72-B, 2-(4-(6-(2-Chloro-3,4-difluorophenyl)-5-(ethoxycarbonyl)-2-(thiazol-2-yl)-3,6-dihydropyrimidin-4-yl)piperidin-1-yl)-4-methoxypyrimidine-5-carboxylic acid] | 62 nM | 5.59 µM |  |  |
| CCOC(=O)C1=C(C2CCN(c3cnc(C(=O)O)s3)CC2)NC(c2nccs2)=NC1c1ccc(F)c(F)c1Cl (single isomer, unassigned) [II-76-B, 5-(4-(6-(2-Chloro-3,4-difluorophenyl)-5-(ethoxycarbonyl)-2-(thiazol-2-yl)-3,6-dihydropyrimidin-4-yl)piperidin-1-yl)thiazole-2-carboxylate lithium salt] |  |  | 90 nM | 6.68 µM |
| CCOC(=O)Cc1coc([C@H]2CC[C@H](C3=C(C(=O)OCC)C(c4ccc(F)c(F)c4Cl)N=C(c4nccs4)N3)CC2)n1 (single isomer, unassigned) [VII-23-Y, (trans)-Ethyl 4-(2-chloro-3,4-difluorophenyl)-(4-(4-(2-ethoxy-2-oxoethyl)oxazol-2-yl)cyclohexyl)-2-(thiazol-2-yl)-1,4-dihydropyrimidine-5-carboxylate] |  | 8.18 µM |  |  |
